From PubChem BioAssay (NCI) come the findings set out here.

Holding throughout (test): inhibition of tumour cell growth, NCI panel, 48 h
The subject of experiment [1] is SR leukemia.
The test system of experiment [2] is MOLT-4 leukemia.
The test system of experiment [3] is MCF7 breast.
Experiment [4] deals with HT29 colon.
For experiment [5], the system named is OVCAR-8 ovarian.
The test system of experiment [6] is RXF 393 renal.
Experiment [7] deals with SK-MEL-2 melanoma.
In experiment [8] the test system is CAKI-1 renal.
The subject of experiment [9] is NCI-H226 lung.
Experiment [10] concerns RPMI-8226 leukemia.

SMILES strings stand for the structures.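 Each compound was tested at five concentrations against cells in 96-well plates for 48 hours. TGI is the concentration that stops growth completely.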 Some results are limits rather than exact numbers.

Turning to `COC(=O)C1=C(C(=O)OC)SC(=C2SCSC3=C2SC(C(=O)OC)=C(C(=O)OC)C32SC3=C(CCCC3)S2)S1`, the TGI in experiment [1] is above 100 µM; in experiment [2] it was above 100 µM; in experiment [3], above 100 µM; in experiment [4], above 100 µM; in experiment [5] it was above 100 µM; in experiment [6] it was 70 µM. Besides, the TGI in experiment [7], in [8] and in experiment [9] was above 100 µM throughout.
Turning to `CC(=O)/C=C/C1=C(C)CCCC1(C)CC(C)C` (stereo not drawn), the TGI was 36.8 µM in experiment [1]; 41.5 µM in experiment [2]; 66.9 µM in experiment [3]; 87.5 µM in [4]; above 100 µM in [5]; 28.4 µM in experiment [6]. Moreover, the TGI in [10] is 36 µM; in experiment [7] it was 43.5 µM; in [8], above 100 µM; in experiment [9], above 100 µM.
Take `CCOC(=O)Nc1sc2c(c1C#N)CCCC2`: the TGI in [1], in experiment [2], in experiment [3], in [4], in experiment [6] and in experiment [10] was above 100 µM throughout. The TGI in [7], in experiment [8] and in [9] was above 100 µM each time.
For `NC1(c2cc3ccccc3s2)CCCC1`, the TGI in experiment [1] was 44.2 µM; in experiment [2] it was 47.3 µM; in experiment [3] it was above 100 µM; in [4], above 100 µM; in [5], above 100 µM; in experiment [6], above 100 µM. Also, the TGI in [10] is 34.4 µM; in [7], above 100 µM; in [8], above 100 µM; in experiment [9], above 100 µM.
Take `O=S(=O)(c1ccccc1)c1cccc2c1NCCC2`: the TGI was above 100 µM in experiment [1]; above 100 µM in experiment [2]; above 100 µM in experiment [3]; above 100 µM in experiment [4]; above 100 µM in experiment [5]; 90.1 µM in experiment [6]. Besides, the TGI is above 100 µM in [10], above 10 µM in experiment [7], above 100 µM in [8] and above 100 µM in experiment [9].
For the compound `CCN(CC)C(=S)N/N=C/c1cc([N+](=O)[O-])ccc1O`, the TGI in experiment [1] is 25.6 µM; in [2], 25.1 µM; in experiment [3] it was 7.05 µM; in experiment [4], above 100 µM; in experiment [5] it was 45.3 µM; in [6], 51.3 µM. For the same compound, the TGI in experiment [7] was 65.6 µM; in experiment [9] it was 12.6 µM.
With `CCC(=O)NC(Nc1cc(C)on1)(C(F)(F)F)C(F)(F)F`, the TGI in [1], in [2], in experiment [3], in experiment [4], in [5] and in [6] was above 100 µM each time. The TGI in experiment [10], in experiment [7], in experiment [8] and in [9] was above 100 µM in each case.
Regarding `CC(=O)N1C(C(=O)NC2CCCCC2)CSC1c1ccccc1` (stereo not drawn), the TGI in experiment [1], in [2], in [3], in experiment [4], in experiment [5] and in experiment [10] was above 100 µM throughout. Further, the TGI in experiment [7], in experiment [8] and in experiment [9] was above 100 µM in each case.
On to `COc1ccc(C(=C2C=CC=C2)c2ccc(OC)cc2)cc1`, for which the TGI was 86.7 µM in [1]; 40.3 µM in experiment [2]; 37.6 µM in [3]; 66 µM in [4]; above 100 µM in experiment [5]; 61.7 µM in [6]. The TGI was 28 µM in [10], 68.5 µM in [7], 56.3 µM in [8] and above 100 µM in experiment [9].
For the compound `Cc1ccccc1C(=N)c1ccccc1Cc1cccc2ccccc12`, the TGI in experiment [1] was 41.2 µM; in experiment [2] it was 42.3 µM; in experiment [3] it was 48.6 µM; in experiment [4], above 100 µM; in [5] it was above 100 µM; in experiment [6], 20.3 µM. Moreover, the TGI in [10] is 33.3 µM; in experiment [7], 35.1 µM; in [8], above 100 µM; in experiment [9] it was 45 µM.
With `O=C(/C=C/c1ccc2c(c1)OCO2)c1ccc(O)cc1`, the TGI in experiment [1] came out at 4.96 µM; in experiment [3] it was 23.1 µM; in experiment [4], 29.8 µM; in [5], 3.11 µM; in experiment [6] it was 29.6 µM; in experiment [7], 32.7 µM. Moreover, the TGI in [8] was 28.7 µM; in experiment [9], 37.9 µM.
Take `CC1=Nc2ccccc2OC(C)=C1N=Nc1ccc2nc(C)[nH]c2c1`: the TGI in [1], in experiment [2], in experiment [3], in [4], in experiment [5] and in experiment [6] was above 100 µM in each case. Further, the TGI in experiment [10], in experiment [7], in [8] and in [9] was above 100 µM each time.
For the compound `Oc1ccccc1CNCc1nc2ccccc2[nH]1`, the TGI in experiment [1], in experiment [2], in experiment [3], in experiment [4], in [5] and in experiment [6] was above 100 µM each time. Besides, the TGI in experiment [10] was 73.1 µM; in experiment [7], above 100 µM; in experiment [8], above 100 µM; in experiment [9], 87.4 µM.
Turning to `O=C(/C=C/c1ccccc1)C[C@@H](O)C[C@@H]1CC=CC(=O)O1`, the TGI is 11.5 µM in experiment [1]; 12.5 µM in [2]; 11.4 µM in [3]; 16.8 µM in [4]; 18.9 µM in experiment [5]; above 23 µM in [6]. Further, the TGI in experiment [10] is above 24.5 µM; in experiment [7], 33.9 µM; in experiment [8], 27.6 µM; in experiment [9], above 100 µM.
